The values that follow come from patent US20210355121A1, “FUSED TRICYCLIC KRAS INHIBITORS” (Incyte Corporation, priority 2020, published 2021).

A word on the IC50: it is the midpoint of a concentration-inhibition curve.

Read-outs that look alike come from different tables or passages of the source. Where only a bound is given, the exact number is not on record here.

The target in one assay is KRAS G12C (Homo sapiens, UniProt P01116, G12C). The assay can be described thus: KRAS G12C GDP-GTP exchange assay (bodipy-GDP for GppNHp, with SOS1). The assay is classed as biochemical. Also on record: G12C_exchange (KRAS_G12C exchange assay IC50): scale not given here. Conditions: 2.5 nM bodipy-loaded KRAS G12C, 2 hours pre-incubation with inhibitor, 2 hours after GppNHp-SOS1; for IC50: read-out: G12C_exchange (KRAS_G12C exchange assay IC50). The protocol:
The inhibitor potency of the exemplified compounds was determined in a fluorescence based guanine nucleotide exchange assay, which measures the exchange of bodipy-GDP (fluorescently labeled GDP) for GppNHp (Non-hydrolyzable GTP analog) to generate the active state of KRAS in the presence of SOS1 (guanine nucleotide exchange factor). Inhibitors were serially diluted in DMSO and a volume of 0.1 μL was transferred to the wells of a black low volume 384-well plate. 5 μL/well volume of bodipy-loaded KRAS G12C diluted to 5 nM in assay buffer (25 mM Hepes pH 7.5, 50 mM NaCl, 10 mM MgCl2 and 0.01% Brij-35) was added to the plate and pre-incubated with inhibitor for 2 hours at ambient temperature. Appropriate controls (enzyme with no inhibitor or with a G12C inhibitor (AMG-510)) were included on the plate. The exchange was initiated by the addition of a 5 μL/well volume containing 1 mM GppNHp and 300 nM SOS1 in assay buffer. The 10 μL/well reaction concentration of the bodipy-loaded KRAS G12C, GppNHp, and SOS1 were 2.5 nM, 500 uM, and 150 nM, respectively. The reaction plates were incubated at ambient temperature for 2 hours, a time estimated for complete GDP-GTP exchange in the absence of inhibitor. For the KRAS G12D and G12V mutants, similar guanine nucleotide exchange assays were used with 2.5 nM as final concentration for the bodipy loaded KRAS proteins and with 4 hours and 3 hours incubation after adding GppNHp-SOS1 mixture for G12D and G12V respectively. A cyclic peptide described to selectively bind G12D mutant (Sakamoto et al., BBRC 484.3 (2017), 605-611) or internal compounds with confirmed binding were used as positive controls in the assay plates. Fluorescence intensities were measured on a PheraStar plate reader instrument (BMG Labtech) with excitation at 485 nm and emission at 520 nm.
Either GraphPad prism or XLfit was used to analyze the data. The IC50 values were derived by fitting the data to a four parameter logistic equation producing a sigmoidal dose-response curve with a variable Hill coefficient. Prism equation: Y=Bottom+(Top−Bottom)/(1+10^((Log IC50−X)*Hill slope)); XLfit equation: Y=(A+((B−A)/(1+((X/C)^D)))) where X is the logarithm of inhibitor concentration and Y is the response.

For assay [1], the system named is MIA PaCa-2 (KRAS G12C) cells. Description: KRAS_G12C cellular pERK HTRF assay. Type of assay: cell-based, human. As to conditions: phospho-ERK1/2 HTRF, 4 hours incubation, read-out: G12C_pERK (KRAS_G12C pERK assay IC50). How it is done:
MIA PaCa-2 (KRAS G12C; ATCC® CRL-1420), A427 (KRAS G12D; ATCC® HTB53), HPAF-II (KRAS G12D; ATCC® CRL-1997) and NCI-H838 (KRAS WT; ATCC® CRL-5844) cells are purchased from ATCC and maintained in RPMI 1640 media supplemented with 10% FBS (Gibco/Life Technologies). The cells are plated at 5000 cells per well (8 uL) into Greiner 384-well low volume, flat-bottom, tissue culture treated white plates and incubated overnight at 37° C., 5% CO2. The next morning, test compound stock solutions are diluted in media at 3× the final concentration, and 4 uL are added to the cells. The plate is mixed by gentle rotation for 30 seconds (250 rpm) at room temperature. The cells are incubated with the KRAS G12C and G12D compounds for 4 hours or 2 hours respectively at 37° C., 5% CO2.
4 uL of 4× lysis buffer with blocking reagent (1:25) (Cisbio) are added to each well and plates are rotated gently (300 rpm) for 30 minutes at room temperature. 4 uL per well of Cisbio anti Phospho-ERK 1/2 d2 is mixed with anti Phospho-ERK 1/2 Cryptate (1:1) are added to each well, mixed by rotation and incubated overnight in the dark at room temperature. Plates are read on the Pherastar plate reader at 665 nm and 620 nm wavelengths. IC50 determination is performed by fitting the curve of inhibitor percent inhibition versus the log of the inhibitor concentration using the GraphPad Prism 7 software.

KRAS G12C, sequence (P01116 1-188 isoform P01116-2 G12C): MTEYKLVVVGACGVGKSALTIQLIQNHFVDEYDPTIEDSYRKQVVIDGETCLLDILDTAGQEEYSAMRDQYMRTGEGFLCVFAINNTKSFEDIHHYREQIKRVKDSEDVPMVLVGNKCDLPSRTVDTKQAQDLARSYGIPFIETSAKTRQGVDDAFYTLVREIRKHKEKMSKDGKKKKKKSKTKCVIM

Take `C=CC(=O)N1CC[C@H](n2ncc3c(N4CC(N(C)C)C4)nc4c(F)c(-c5c(C)c(Cl)cc6[nH]ncc56)c(Cl)cc4c32)C[C@H]1CC#N` (single isomer, unassigned) [Example 3a]: the IC50 was no more than 100 nM on KRAS G12C and no more than 100 nM in assay [1] (Homo sapiens, MIA PaCa-2). As to `C=CC(=O)N1CC[C@H](n2ncc3c(N4CC(N(C)C)C4)nc4c(F)c(-c5c(C)c(Cl)cc6[nH]ncc56)c(Cl)cc4c32)C[C@H]1CC#N` (single isomer, unassigned) [Example 3b], the IC50 (on KRAS G12C; in assay [1]) was no more than 100 nM each time. Consider `Cc1c(Cl)cc2[nH]ncc2c1-c1c(Cl)cc2c(nc(N3CC(N(C)C)C3)c3cnn([C@H]4CCN(C(=O)/C=C/CN(C)C)[C@H](CC#N)C4)c32)c1F` (single isomer, unassigned) [Example 4a], for which the concentration for half-maximal inhibition (IC50) is no more than 100 nM at KRAS G12C and no more than 100 nM in assay [1] (Homo sapiens, MIA PaCa-2). Regarding `Cc1c(Cl)cc2[nH]ncc2c1-c1c(Cl)cc2c(nc(N3CC(N(C)C)C3)c3cnn([C@H]4CCN(C(=O)/C=C/CN(C)C)[C@H](CC#N)C4)c32)c1F` (single isomer, unassigned) [Example 4b], on KRAS G12C, the “G12C_exchange (KRAS_G12C exchange assay IC50)” value (“G12C_exchange” for short) is recorded as “††”. As to `COC/C=C/C(=O)N1CC[C@H](n2ncc3c(N4CC(N(C)C)C4)nc4c(F)c(-c5c(C)c(Cl)cc6[nH]ncc56)c(Cl)cc4c32)C[C@H]1CC#N` (single isomer, unassigned) [Example 5a], the IC50 on KRAS G12C is no more than 100 nM; in assay [1] (Homo sapiens, MIA PaCa-2), no more than 100 nM. Take `COC/C=C/C(=O)N1CC[C@H](n2ncc3c(N4CC(N(C)C)C4)nc4c(F)c(-c5c(C)c(Cl)cc6[nH]ncc56)c(Cl)cc4c32)C[C@H]1CC#N` (single isomer, unassigned) [Example 5b]: the “G12C_exchange” value on KRAS G12C is given as “††”. `Cc1c(Cl)cc2[nH]ncc2c1-c1c(Cl)cc2c(nc(N3CC(N(C)C)C3)c3cnn([C@H]4CCN(C(=O)/C=C/CF)[C@H](CC#N)C4)c32)c1F` (single isomer, unassigned) [Example 6a]: the 50% inhibitory concentration (IC50) on KRAS G12C is no more than 100 nM; in assay [1] (Homo sapiens, MIA PaCa-2), no more than 100 nM. As to `Cc1c(Cl)cc2[nH]ncc2c1-c1c(Cl)cc2c(nc(N3CC(N(C)C)C3)c3cnn([C@H]4CCN(C(=O)/C=C/CF)[C@H](CC#N)C4)c32)c1F` (single isomer, unassigned) [Example 6b], the “G12C_exchange” value on KRAS G12C was “††”. As for `Cc1c(Cl)cc2[nH]ncc2c1-c1c(Cl)cc2c(nc(N3CC(N(C)C)C3)c3cnn([C@H]4CCN(C(=O)/C=C/C(F)F)[C@H](CC#N)C4)c32)c1F` (single isomer, unassigned) [Example 7a], the IC50 on KRAS G12C is no more than 100 nM; in assay [1] (Homo sapiens, MIA PaCa-2), no more than 100 nM. As to `Cc1c(Cl)cc2[nH]ncc2c1-c1c(Cl)cc2c(nc(N3CC(N(C)C)C3)c3cnn([C@H]4CCN(C(=O)/C=C/C(F)F)[C@H](CC#N)C4)c32)c1F` (single isomer, unassigned) [Example 7b], the “G12C_exchange” value on KRAS G12C was “††”.

For the molecule `C=C(F)C(=O)N1CC[C@H](n2ncc3c(N4CC(N(C)C)C4)nc4c(F)c(-c5c(C)c(Cl)cc6[nH]ncc56)c(Cl)cc4c32)C[C@H]1CC#N` (single isomer, unassigned) [Example 8a], the 50% inhibitory concentration (IC50) on KRAS G12C was no more than 100 nM; in assay [1] (Homo sapiens, MIA PaCa-2) it was no more than 100 nM.

For `C=C(F)C(=O)N1CC[C@H](n2ncc3c(N4CC(N(C)C)C4)nc4c(F)c(-c5c(C)c(Cl)cc6[nH]ncc56)c(Cl)cc4c32)C[C@H]1CC#N` (single isomer, unassigned) [Example 8b], the “G12C_exchange” value at KRAS G12C is reported as “††”. For the molecule `CC#CC(=O)N1CC[C@H](n2ncc3c(N4CC(N(C)C)C4)nc4c(F)c(-c5c(C)c(Cl)cc6[nH]ncc56)c(Cl)cc4c32)C[C@H]1CC#N` (single isomer, unassigned) [Example 9a], the IC50 at KRAS G12C is no more than 100 nM; in assay [1] (Homo sapiens, MIA PaCa-2), no more than 100 nM.

For the molecule `CC#CC(=O)N1CC[C@H](n2ncc3c(N4CC(N(C)C)C4)nc4c(F)c(-c5c(C)c(Cl)cc6[nH]ncc56)c(Cl)cc4c32)C[C@H]1CC#N` (single isomer, unassigned) [Example 9b], the “G12C_exchange” value on KRAS G12C is “††”.

`Cc1c(Cl)cc2[nH]ncc2c1-c1c(Cl)cc2c(nc(N3CC(C)(N(C)C)C3)c3cnn([C@H]4CCN(C(=O)/C=C/CN(C)C)[C@H](CC#N)C4)c32)c1F` (single isomer, unassigned) [Example 10a]: the 50% inhibitory concentration (IC50) was no more than 100 nM at KRAS G12C and no more than 100 nM in assay [1] (Homo sapiens, MIA PaCa-2). Turning to `Cc1c(Cl)cc2[nH]ncc2c1-c1c(Cl)cc2c(nc(N3CC(C)(N(C)C)C3)c3cnn([C@H]4CCN(C(=O)/C=C/CN(C)C)[C@H](CC#N)C4)c32)c1F` (single isomer, unassigned) [Example 10b], the “G12C_exchange” value on KRAS G12C was “††”.

As for `CC#CC(=O)N1CC[C@H](n2ncc3c(N4CC(C)(N(C)C)C4)nc4c(F)c(-c5c(C)c(Cl)cc6[nH]ncc56)c(Cl)cc4c32)C[C@H]1CC#N` (single isomer, unassigned) [Example 11b], the “G12C_exchange” value at KRAS G12C is “††”. For `COC/C=C/C(=O)N1CC[C@H](n2ncc3c(N4CC(C)(N(C)C)C4)nc4c(F)c(-c5c(C)c(Cl)cc6[nH]ncc56)c(Cl)cc4c32)C[C@H]1CC#N` (single isomer, unassigned) [Example 12b], the “G12C_exchange” value on KRAS G12C is listed as “††”. Same read-out and setting: the same measure for `Cc1c(Cl)cc2[nH]ncc2c1-c1c(Cl)cc2c(nc(N3CC(C)(N(C)C)C3)c3cnn([C@H]4CCN(C(=O)/C=C/CF)[C@H](CC#N)C4)c32)c1F` (single isomer, unassigned) [Example 13b]: “††”; for `Cc1c(Cl)cc2[nH]ncc2c1-c1c(Cl)cc2c(nc(N3CC(C)(N(C)C)C3)c3cnn([C@H]4CCN(C(=O)/C=C/C(F)F)[C@H](CC#N)C4)c32)c1F` (single isomer, unassigned) [Example 14b]: “††”. On the same count and under the same terms, the value for `C=C(F)C(=O)N1CC[C@H](n2ncc3c(N4CC(C)(N(C)C)C4)nc4c(F)c(-c5c(C)c(Cl)cc6[nH]ncc56)c(Cl)cc4c32)C[C@H]1CC#N` (single isomer, unassigned) [Example 15b] was “††”. Consider `C=CC(=O)N1CC[C@H](n2ncc3c(N4CC(C)(N(C)C)C4)nc4c(F)c(-c5c(C)c(Cl)cc6[nH]ncc56)c(Cl)cc4c32)C[C@H]1CC#N` (single isomer, unassigned) [Example 16b], for which the “G12C_exchange” value on KRAS G12C was “††”. Same read-out and setting: the value for `CC#CC(=O)N1CC[C@H](n2ncc3c(OC[C@@H]4CCCN4C)nc4c(F)c(-c5c(C)c(Cl)cc6[nH]ncc56)c(Cl)cc4c32)C[C@H]1CC#N` (single isomer, unassigned) [Example 18b] was “††”. Same read-out and setting: the value for `COC/C=C/C(=O)N1CC[C@H](n2ncc3c(OC[C@@H]4CCCN4C)nc4c(F)c(-c5c(C)c(Cl)cc6[nH]ncc56)c(Cl)cc4c32)C[C@H]1CC#N` (single isomer, unassigned) [Example 19b] was “††”. For `C=CC(=O)N1CC[C@H](n2ncc3c(OC[C@@H]4CCCN4C)nc4c(F)c(-c5c(C)c(Cl)cc6[nH]ncc56)c(Cl)cc4c32)C[C@H]1CC#N` (single isomer, unassigned) [Example 20b], at KRAS G12C, the half-inhibitory concentration (IC50) was no more than 100 nM.
